In patent US20250215012A1, “IKZF2 DEGRADERS AND USES THEREOF” (REGENTS OF THE UNIVERSITY OF MICHIGAN, priority 2022, published 2025):

Biological target: IKZF2 (Homo sapiens (Human), UniProt Q96SW2+Q9UKS7)
Assay: IKZF2 HiBiT Assay (Jurkat-IKZF2-HiBiT cell line)
Type: cell-based
Details: Jurkat-IKZF2-HiBiT cells, 24 hours; for Dmax: read-out: HiBit assay degradation analysis Dmax; for DC50: read-out: HiBit assay degradation analysis DC50
Summary of the method: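 IKZF2 degradation was assessed as HiBiT luminescence in Jurkat-IKZF2-HiBiT cells, using lytic detection after 24 h of compound treatment at 37 °C, 5% CO2.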

Chain of IKZF2 (Q9UKS7 whole entry): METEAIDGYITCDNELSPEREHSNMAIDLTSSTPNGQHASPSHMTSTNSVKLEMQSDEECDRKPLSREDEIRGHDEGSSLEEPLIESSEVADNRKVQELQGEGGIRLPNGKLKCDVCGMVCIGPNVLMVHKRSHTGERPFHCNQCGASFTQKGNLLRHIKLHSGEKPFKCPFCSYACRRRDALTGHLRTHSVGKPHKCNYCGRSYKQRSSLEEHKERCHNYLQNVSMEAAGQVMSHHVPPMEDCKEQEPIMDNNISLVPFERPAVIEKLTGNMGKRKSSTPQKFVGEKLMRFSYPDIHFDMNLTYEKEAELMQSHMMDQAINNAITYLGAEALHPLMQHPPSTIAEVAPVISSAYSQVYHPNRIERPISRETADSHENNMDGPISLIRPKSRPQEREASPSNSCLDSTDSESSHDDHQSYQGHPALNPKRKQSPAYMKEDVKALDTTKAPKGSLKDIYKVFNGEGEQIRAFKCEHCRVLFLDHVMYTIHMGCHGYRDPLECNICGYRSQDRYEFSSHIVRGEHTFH
Chain of IKZF2 (Q96SW2 whole entry): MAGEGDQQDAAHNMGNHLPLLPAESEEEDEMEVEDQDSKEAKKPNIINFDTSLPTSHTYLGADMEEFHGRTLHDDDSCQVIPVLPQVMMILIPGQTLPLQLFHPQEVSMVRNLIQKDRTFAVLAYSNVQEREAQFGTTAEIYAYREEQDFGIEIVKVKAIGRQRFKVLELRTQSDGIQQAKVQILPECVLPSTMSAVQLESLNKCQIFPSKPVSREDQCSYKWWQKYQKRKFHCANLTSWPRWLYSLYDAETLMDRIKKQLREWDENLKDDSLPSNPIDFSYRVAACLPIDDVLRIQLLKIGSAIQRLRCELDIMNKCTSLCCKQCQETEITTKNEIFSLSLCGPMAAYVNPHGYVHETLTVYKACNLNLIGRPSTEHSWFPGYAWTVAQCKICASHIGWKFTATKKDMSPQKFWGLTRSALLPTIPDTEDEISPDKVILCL
Chain of IKZF2 (Q16531 whole entry partner): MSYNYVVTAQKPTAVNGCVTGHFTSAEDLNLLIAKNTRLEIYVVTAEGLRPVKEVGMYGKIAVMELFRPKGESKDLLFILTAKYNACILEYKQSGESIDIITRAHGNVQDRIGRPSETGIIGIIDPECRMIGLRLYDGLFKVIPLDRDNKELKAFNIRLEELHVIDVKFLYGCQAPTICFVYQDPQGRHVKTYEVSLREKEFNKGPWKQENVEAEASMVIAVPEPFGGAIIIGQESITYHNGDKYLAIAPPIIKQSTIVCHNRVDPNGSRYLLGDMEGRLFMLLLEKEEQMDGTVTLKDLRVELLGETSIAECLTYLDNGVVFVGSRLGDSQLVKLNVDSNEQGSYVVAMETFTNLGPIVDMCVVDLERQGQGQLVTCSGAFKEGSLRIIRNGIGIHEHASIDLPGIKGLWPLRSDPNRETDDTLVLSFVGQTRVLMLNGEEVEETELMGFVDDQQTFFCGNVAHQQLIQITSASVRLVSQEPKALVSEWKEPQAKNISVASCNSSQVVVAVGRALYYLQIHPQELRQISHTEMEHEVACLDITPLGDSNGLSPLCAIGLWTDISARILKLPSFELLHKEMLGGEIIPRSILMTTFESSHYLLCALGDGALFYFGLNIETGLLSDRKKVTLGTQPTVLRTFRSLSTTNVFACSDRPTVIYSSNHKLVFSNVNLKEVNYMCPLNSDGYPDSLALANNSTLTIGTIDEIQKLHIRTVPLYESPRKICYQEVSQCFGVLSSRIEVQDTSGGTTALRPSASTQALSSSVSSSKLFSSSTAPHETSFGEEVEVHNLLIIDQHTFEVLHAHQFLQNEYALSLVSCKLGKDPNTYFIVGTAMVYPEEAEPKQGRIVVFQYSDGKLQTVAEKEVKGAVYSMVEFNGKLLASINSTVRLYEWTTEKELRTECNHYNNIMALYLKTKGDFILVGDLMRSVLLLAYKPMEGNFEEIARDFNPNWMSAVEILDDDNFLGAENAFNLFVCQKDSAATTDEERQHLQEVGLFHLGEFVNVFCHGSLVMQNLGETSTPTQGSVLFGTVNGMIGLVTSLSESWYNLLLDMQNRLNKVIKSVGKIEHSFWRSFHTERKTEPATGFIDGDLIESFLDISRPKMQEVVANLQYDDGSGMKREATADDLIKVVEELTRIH

SMILES | Dmax | DC50
O=C1CC[C@H](N2Cc3c(ccc4c3OCC43CCN(Cc4cnn(S(=O)(=O)c5cccc(Cl)c5)c4)CC3)C2=O)C(=O)N1 [Compound A350, (S)-3-(1′-((1-((3-chlorophenyl)sulfonyl)-1H-pyrazol-4-yl)methyl)-6-oxo-6,8-dihydro-2H,7H-spiro[furo[2,3-e]isoindole-3,4′-piperidin]-7-yl)piperidine-2,6-dione] | 60 to 80% | –
O=C1CC[C@H](N2Cc3c(ccc4c3OCC43CCN(Cc4ccn(-c5ccc(Cl)cc5)n4)CC3)C2=O)C(=O)N1 [Compound A315, (S)-3-(1′-((1-(4-chlorophenyl)-1H-pyrazol-3-yl)methyl)-6-oxo-6,8-dihydro-2H,7H-spiro[furo[2,3-e]isoindole-3,4′-piperidin]-7-yl)piperidine-2,6-dione] | 40 to 60% | 50 to 200 nM
Cc1[nH]c2c(CN3CCC4(CC3)COc3c4ccc4c3CN(C3CCC(=O)NC3=O)C4=O)cccc2c1C (centres unmarked) [Compound A111, 3-(1′-((2,3-dimethyl-1H-indol-7-yl)methyl)-6-oxo-6,8-dihydro-2H,7H-spiro[furo[2,3-e]isoindole-3,4′-piperidin]-7-yl)piperidine-2,6-dione] | 60 to 80% | 50 to 200 nM
O=C1CC[C@H](N2Cc3c(ccc4c3OCC43CCN(Cc4cnn(C[C@H]5C[C@@H]5c5ccccc5)c4)CC3)C2=O)C(=O)N1 [Compound A347, (S)-3-(6-oxo-1′-((1-(((1S,2S)-2-phenylcyclopropyl)methyl)-1H-pyrazol-4-yl)methyl)-6,8-dihydro-2H,7H-spiro[furo[2,3-e]isoindole-3,4′-piperidin]-7-yl)piperidine-2,6-dione] | 60 to 80% | –
O=C1CC[C@H](N2Cc3c(ccc4c3OCC43CCN(C[C@@H]4C[C@H]4c4ccc(F)cc4)CC3)C2=O)C(=O)N1 [Compound A362, (S)-3-(1′-(((1R,2R)-2-(4-fluorophenyl)cyclopropyl)methyl)-6-oxo-6,8-dihydro-2H,7H-spiro[furo[2,3-e]isoindole-3,4′-piperidin]-7-yl)piperidine-2,6-dione] | 40 to 60% | > 500 nM
O=C1CC[C@H](N2Cc3c(ccc4c3OCC43CCN(Cc4cnn(S(=O)(=O)c5ccc(Cl)cc5)c4)CC3)C2=O)C(=O)N1 [Compound A352, (S)-3-(1′-((1-((4-chlorophenyl)sulfonyl)-1H-pyrazol-4-yl)methyl)-6-oxo-6,8-dihydro-2H,7H-spiro[furo[2,3-e]isoindole-3,4′-piperidin]-7-yl)piperidine-2,6-dione] | < 40% | –
O=C1CCC(N2Cc3c(ccc4c3OCC43CCN(Cc4cccc5ccnn45)CC3)C2=O)C(=O)N1 (centres unmarked) [Compound A76, 3-(6-oxo-1′-(pyrazolo[1,5-]pyridin-7-ylmethyl)-6,8-dihydro-2H,7H-spiro[furo[2,3-e]isoindole-3,4′-piperidin]-7-yl)piperidine-2,6-dione] | < 40% | > 500 nM
O=C1CCC(N2Cc3c(ccc4c3OCC43CCN(Cc4cccc(N5CCOCC5)c4)CC3)C2=O)C(=O)N1 (centres unmarked) [Compound A97, 3-(1′-(3-morpholinobenzyl)-6-oxo-6,8-dihydro-2H,7H-spiro[furo[2,3-e]isoindole-3,4′-piperidin]-7-yl)piperidine-2,6-dione] | 40 to 60% | > 500 nM
O=C1CCC(N2Cc3c(ccc4c3OCC43CCN(Cc4cnn(Cc5cccc(F)c5)c4)CC3)C2=O)C(=O)N1 (centres unmarked) [Compound A238, 3-(1′-((1-(3-fluorobenzyl)-1H-pyrazol-4-yl)methyl)-6-oxo-6,8-dihydro-2H,7H-spiro[furo[2,3-e]isoindole-3,4′-piperidin]-7-yl)piperidine-2,6-dione] | 60 to 80% | < 50 nM
CCC(c1ccccc1)N1CCC2(CC1)COc1c2ccc2c1CN(C1CCC(=O)NC1=O)C2=O (centres unmarked) [Compound A330, 3-(6-oxo-1′-(1-phenylpropyl)-6,8-dihydro-2H,7H-spiro[furo[2,3-e]isoindole-3,4′-piperidin]-7-yl)piperidine-2,6-dione] | 60 to 80% | < 50 nM
COCc1cccc(CN2CCC3(CC2)COc2c3ccc3c2CN(C2CCC(=O)NC2=O)C3=O)c1 (centres unmarked) [Compound A112, 3-(1′-(3-(methoxymethyl)benzyl)-6-oxo-6,8-dihydro-2H,7H-spiro[furo[2,3-e]isoindole-3,4′-piperidin]-7-yl)piperidine-2,6-dione] | 60 to 80% | 200 to 500 nM
O=C1CC[C@H](N2Cc3c(ccc4c3OCC43CCN(Cc4cccc(-c5cnn(CC6COC6)c5)c4)CC3)C2=O)C(=O)N1 [Compound A271, (S)-3-(1′-(3-(1-(oxetan-3-ylmethyl)-1H-pyrazol-4-yl)benzyl)-6-oxo-6,8-dihydro-2H,7H-spiro[furo[2,3-e]isoindole-3,4′-piperidin]-7-yl)piperidine-2,6-dione] | < 40% | > 500 nM
O=C1CCC(N2Cc3c(ccc4c3OCC43CCN(Cc4c[nH]c(-c5ccccc5)n4)CC3)C2=O)C(=O)N1 (centres unmarked) [Compound A84, 3-(6-oxo-1′-((2-phenyl-1H-imidazol-4-yl)methyl)-6,8-dihydro-2H,7H-spiro[furo[2,3-e]isoindole-3,4′-piperidin]-7-yl)piperidine-2,6-dione] | 40 to 60% | > 500 nM
O=C1CCC(N2Cc3c(ccc4c3OCC43CCN(Cc4cnn(Cc5ccccc5Cl)c4)CC3)C2=O)C(=O)N1 (centres unmarked) [Compound A240, 3-(1′-((1-(2-chlorobenzyl)-1H-pyrazol-4-yl)methyl)-6-oxo-6,8-dihydro-2H,7H-spiro[furo[2,3-e]isoindole-3,4′-piperidin]-7-yl)piperidine-2,6-dione] | 60 to 80% | < 50 nM
O=C1CCC(N2Cc3c(ccc4c3OCC43CCN(Cc4cccc(-c5cnn(C6CCOCC6)c5)c4)CC3)C2=O)C(=O)N1 (centres unmarked) [Compound A147, 3-(6-oxo-1′-(3-(1-(tetrahydro-2H-pyran-4-yl)-1H-pyrazol-4-yl)benzyl)-6,8-dihydro-2H,7H-spiro[furo[2,3-e]isoindole-3,4′-piperidin]-7-yl)piperidine-2,6-dione] | 60 to 80% | < 50 nM
O=C1CCC(N2Cc3c(ccc4c3OCC43CCN(Cc4ccc5ncsc5c4)CC3)C2=O)C(=O)N1 (centres unmarked) [Compound A62, 3-(1′-(benzo[d]thiazol-6-ylmethyl)-6-oxo-6,8-dihydro-2H,7H-spiro[furo[2,3-e]isoindole-3,4′-piperidin]-7-yl)piperidine-2,6-dione] | 40 to 60% | 200 to 500 nM
Cn1cc(-c2cccc(CN3CCC4(CC3)CNc3c4ccc4c3CN(C3CCC(=O)NC3=O)C4=O)c2)cn1 (centres unmarked) [Compound A309, 3-(1-(3-(1-methyl-1H-pyrazol-4-yl)benzyl)-6′-oxo-1′,2′,6′,8′-tetrahydro-7′H-spiro[piperidine-4,3′-pyrrolo[3,4-g]indol]-7′-yl)piperidine-2,6-dione] | 40 to 60% | > 500 nM
O=C1CCC(N2Cc3c(ccc4c3OCC43CCN(Cc4ccc(S(=O)(=O)c5ccccc5)cc4)CC3)C2=O)C(=O)N1 (centres unmarked) [Compound A340, 3-(6-oxo-1′-(4-(phenylsulfonyl)benzyl)-6,8-dihydro-2H,7H-spiro[furo[2,3-e]isoindole-3,4′-piperidin]-7-yl)piperidine-2,6-dione] | 40 to 60% | > 500 nM
COCn1cc(-c2cccc(CN3CCC4(CC3)COc3c4ccc4c3CN([C@H]3CCC(=O)NC3=O)C4=O)c2)cn1 [Compound A294, (S)-3-(1′-(3-(1-(methoxymethyl)-1H-pyrazol-4-yl)benzyl)-6-oxo-6,8-dihydro-2H,7H-spiro[furo[2,3-e]isoindole-3,4′-piperidin]-7-yl)piperidine-2,6-dione] | 60 to 80% | < 50 nM
O=C1CCC(N2Cc3c(ccc4c3OCC43CCN(Cc4cccc5c4COC5)CC3)C2=O)C(=O)N1 (centres unmarked) [Compound A113, 3-(1′-((1,3-dihydroisobenzofuran-4-yl)methyl)-6-oxo-6,8-dihydro-2H,7H-spiro[furo[2,3-e]isoindole-3,4′-piperidin]-7-yl)piperidine-2,6-dione] | 60 to 80% | < 50 nM
O=C1CCC(N2Cc3c(ccc4c3OCC43CCN(Cc4csc5ccccc45)CC3)C2=O)C(=O)N1 (centres unmarked) [Compound A185, 3-(1′-(benzo[b]thiophen-3-ylmethyl)-6-oxo-6,8-dihydro-2H,7H-spiro[furo[2,3-e]isoindole-3,4′-piperidin]-7-yl)piperidine-2,6-dione] | 60 to 80% | < 50 nM
O=C1CC[C@H](N2Cc3c(ccc4c3OCC43CCN(Cc4ccc5c(c4)NC(=O)C5)CC3)C2=O)C(=O)N1 [Compound A173, (S)-3-(6-oxo-1′-((2-oxoindolin-6-yl)methyl)-6,8-dihydro-2H,7H-spiro[furo[2,3-e]isoindole-3,4′-piperidin]-7-yl)piperidine-2,6-dione] | 60 to 80% | 50 to 200 nM
O=C1CCC(N2Cc3c(ccc4c3OCC43CCN(Cc4ccc(C(F)(F)F)cc4)CC3)C2=O)C(=O)N1 (centres unmarked) [Compound A194, 3-(6-oxo-1′-(4-(trifluoromethyl)benzyl)-6,8-dihydro-2H,7H-spiro[furo[2,3-e]isoindole-3,4′-piperidin]-7-yl)piperidine-2,6-dione] | < 40% | > 500 nM
O=C1CCC(N2Cc3c(ccc4c3OCC43CCN(C[C@H]4C[C@@H]4c4ccccc4)CC3)C2=O)C(=O)N1 (relative stereo) [Compound A180, 3-(6-oxo-1′-((trans-2-phenylcyclopropyl)methyl)-6,8-dihydro-2H,7H-spiro[furo[2,3-e]isoindole-3,4′-piperidin]-7-yl)piperidine-2,6-dione] | < 40% | > 500 nM
O=C1CCC(N2Cc3c(ccc4c3OCC43CCN(Cc4cccc5occc45)CC3)C2=O)C(=O)N1 (centres unmarked) [Compound A119, 3-(1′-(benzofuran-4-ylmethyl)-6-oxo-6,8-dihydro-2H,7H-spiro[furo[2,3-e]isoindole-3,4′-piperidin]-7-yl)piperidine-2,6-dione] | 60 to 80% | < 50 nM
